Where two headings read alike, the source gives them in different places.
Legend:
[1] = tested on: participants with PFIC 1 or PFIC 2; details: cited from earlier work
[2] = tested on: subjects with PFIC; experiment: Clinician Scratch Scale (CSS) score, MARCH-PFIC Phase 3 study; format: in vivo, human
Description: Clinician Scratch Scale (CSS). The CSS provides an assessment of itch severity. The clinician's assessment of the subject's pruritus focused on scratching and visible damage to the skin as a result of scratching as observed by the physician. The CSS uses a 5-point scale, in which 0 designates no evidence of scratching and 4 designates cutaneous mutilation with bleeding, hemorrhage and scarring. A clinician's assessment of pruritus made by the principal investigator or sub-investigator using the CSS was recorded at screening, baseline, and at additional study visits as outline in Table 2.
For the PFIC Cohort, PFIC Type is included in the model as an additional covariate.
Clinician Scratch Scale (CSS) was scored on a 0-4 scale, where 0=none and 4=cutaneous mutilations, haemorrage, and scarring (worst scratching).

[3] = tested on: subjects with PFIC; experiment: Clinical laboratory evaluations (ALT/transaminases, INR, vitamins A, D, E), MARCH-PFIC Phase 3 study; format: in vivo, human
Description: Clinical Laboratory Evaluations.
For subjects with a confirmed increase in ALT or TSB level, meeting the close monitoring criteria, the following investigations were considered, as clinically indicated: 1) Close and frequent monitoring of liver enzyme and serum bilirubin tests as clinically indicated; 2) Symptoms as well as prior, current, and intercurrent diseases/illnesses; 3) Use of or recent change in use of concomitant treatment (including non-prescription medications, herbal and dietary supplement preparations), alcohol use, recreational drug use, and special diets; 4) History for exposure to environmental chemical agents and travel; 5) Serology for viral hepatitis (HAV IgM, HBsAg, HCV antibody, HCVRNA, CMV IgM, and EBV antibody panel); 6) Serology for autoimmune hepatitis (e.g., antinuclear antibody [ANA]); 7) AST, creatine phosphokinase (CPK), and lactate dehydrogenase (LDH); 8) CBC with differential blood count (eosinophils); 9) Reticulocyte count, PT/INR.

[4] = tested on: subjects with PFIC; experiment: Treatment-emergent adverse events (TEAEs), MARCH-PFIC Phase 3 study; format: in vivo
Description: A TEAE can therefore be any unfavorable and unintended sign (including an abnormal laboratory finding), symptom, or disease temporally associated with the use of a medicinal (investigational) product, whether or not related to the medicinal (investigational) product (ICH Guidance E2A 1995). All TEAEs are collected from the time the informed consent is signed until the defined follow-up period. This includes events occurring during the screening phase of the study, regardless of whether or not study medication is administered.
A serious adverse event (SAE) is any untoward medical occurrence (whether considered to be related to study medication or not) that at any dose: 1) Results in death; 2) Is life-threatening; 3) Requires inpatient hospitalization or prolongation of existing hospitalization; 4) Results in persistent or significant disability/incapacity; or 5) Is an important medical event.
All SAEs (regardless of relationship to study) are collected from the time the subject signs the informed consent until the defined follow-up period and must be reported within 24 hours of the first awareness of the event.

[5] = tested on: patients with PFIC; experiment: TEAEs, MARCH-ON long-term extension; format: in vivo, human
Experimental: Eighty-five patients from MARCH trial enrolled in MARCH-ON (Table 10, FIG. 29A). Forty-seven patients had received Maralixibat (MRX-MRX) and 38 had received placebo (PBO-MRX) during MARCH trial.
Methods: Long-term maintenance of response was assessed for patients who were originally randomized to receive MRX in MARCH and continued with treatment in MARCH-ON (MRX-MRX group; n=33). MRX response was assessed for patients who received PBO in the MARCH study and switched to open-label MRX in MARCH-ON (PBO-MRX group; n=24). Assessments included: pruritus measured by 0-4 scale of ItchRO[Obs], sBA, bilirubin, and growth z-scores, as well as incidence of treatment-emergent adverse events(TEAEs). Baseline (BL) was defined as the start of MRX for each group.

[6] = Height and weight Z-score, MARCH-PFIC Phase 3 study; format: in vivo, human; details: BSEP deficiency group and PFIC group vs placebo
[7] = tested on: patients with a truncated BSEP (t-BSEP) deficiency; experiment: sBA in individual t-BSEP patients (week 26 and week 58 of treatment); format: in vivo, human
[8] = BSEP deficiency cohort, FIG. 19A
[9] = MARCH, all PFIC cohorts, Maralixibat (n = 47)
[10] = MARCH, all PFIC cohorts, Maralixibat (n = 47), listed as Maralixibat
[11] = among the 8 participants receiving MRX who had transaminase elevations

Q: For `CCCCC1(CCCC)CS(=O)(=O)c2ccc(N(C)C)cc2[C@@H](c2ccc(OCc3ccc(C[N+]45CCN(CC4)CC5)cc3)cc2)[C@H]1O` [maralixibat, 1-(4-((4-((4R,5R)-3,3-dibutyl-7-(dimethylamino)-4-hydroxy-1,1-dioxido-2,3,4,5-tetrahydrobenzo[b]thiepin-5-yl)phenoxy)methyl)benzyl)-1,4-diazabicyclo[2.2.2]octan-1-ium], which “response in Indigo Phase 2 study” value ([1]; participants with PFIC 2) is on record?
A: Its value is “had a response”.

Q: What about the “response in Indigo Phase 2 study” value ([1]; patients with PFIC 1) of the same compound?
A: Its value is “did not have a response”.

Q: What about the “difference in CSS improvement vs placebo group” value [2, 8] of the same compound?
A: The value was 1.328 point.

Q: What about the “improvement in CSS score relative to baseline” value [2, 8] of the same compound?
A: Its value is “about 1.7 points”.

Q: What about the “difference in CSS improvement vs placebo group” value ([2]; PFIC cohort, FIG. 19B) of the same compound?
A: Its value is 1.247 point.

Q: What about the “improvement in CSS score relative to baseline” value ([2]; PFIC cohort, FIG. 19B) of the same compound?
A: Its value is “about 1.8 points”.

Q: And the “changes in serum ALT” value ([3]; All-PFIC Cohort, FIG. 26A-B)?
A: Its value is “No significant changes”.

Q: And the “changes from baseline in transaminase levels” value ([3]; MARCH, either group)?
A: Its value is “no clinically meaningful changes”.

Q: And the “changes from baseline in serum levels of vitamins A, D, and E” value ([3]; MARCH, under regular FSV supplementation)?
A: Its value is “No clinically meaningful changes”.

Q: What about the “International normalized ratio (INR), mean change from Baseline” value ([3]; MARCH, week 26) of the same compound?
A: Its value is −0.3.

Q: What about the “median duration of diarrhea” value ([4]; MARCH) of the same compound?
A: Its value is 5.5 days.

Q: And the “patients who discontinued MRX due to transaminase elevation” value ([4]; MARCH)?
A: The value was “No patients”.

Q: And the tolerability ([4]; MARCH)?
A: The tolerability was “well-tolerated”.

Q: And the “Any TEAE, %” value [4, 9]?
A: Its value is “(100%)”.

Q: And the “Diarrhoea related to study drug, %” value [4, 9]?
A: The value was “(27.7%)”.

Q: And the “GI disorders (most common TEAEs), %” value [4, 9]?
A: Its value is 74.5%.

Q: What about the “GI events potentially related to study drug, %” value [4, 9] of the same compound?
A: The value was “(29.8%)”.

Q: And the “Grade 3/4 TEAE, %” value [4, 9]?
A: Its value is “(6.4%)”.

Q: What about the “Serious TEAE (SAE), %” value [4, 9] of the same compound?
A: Its value is 10.6%.

Q: And the “TEAE leading to discontinuation, %” value [4, 9]?
A: The value was “(2.1%)”.

Q: What about the “TEAE potentially related to study drug, %” value [4, 9] of the same compound?
A: The value was “(38.3%)”.

Q: And the “Serious TEAE (SAE), %” value ([4]; MARCH, all PFIC cohorts, Maralixibat (n = 47), listed as MRX)?
A: Its value is 10.6%.

Q: And the “Diarrhoea, %” value [4, 10]?
A: Its value is “(57.4%)”.

Q: What about the “Serious TEAE (SAE), %” value [4, 10] of the same compound?
A: Its value is “(10.6%)”.

Q: What about the “Constipation, %” value ([4]; MARCH, MRX (n = 47)) of the same compound?
A: The value was “(8.5) %”.

Q: And the “Gastroenteritis, %” value ([4]; MARCH, MRX (n = 47))?
A: Its value is “(6.4) %”.

Q: What about the “Haematochezia, %” value ([4]; MARCH, MRX (n = 47)) of the same compound?
A: Its value is “(6.4) %”.

Q: What about the “Increased ALT, %” value ([4]; MARCH, MRX (n = 47)) of the same compound?
A: Its value is “(12.8) %”.

Q: What about the “Vomiting, %” value ([4]; MARCH, MRX (n = 47)) of the same compound?
A: The value was “(6.4) %”.

Q: And the “participants with resolution of the transaminase elevation without drug interruption” value [4, 11]?
A: Its value is 6.

Q: What about the “patients with ongoing stable transaminase elevation even after drug interruption or dose reduction” value [4, 11] of the same compound?
A: Its value is 2.

Q: And the “Any TEAE, %” value ([5]; MRX-MRX (n = 47))?
A: Its value is “(1M)”.

Q: What about the “Most common TEAE: diarrhoea, %” value ([5]; MRX-MRX (n = 47)) of the same compound?
A: The value was “(63.8) %”.

Q: And the “Serious TEAE, %” value ([5]; MRX-MRX (n = 47))?
A: Its value is “(17.0) %”.

Q: And the “Severe TEAE, %” value ([5]; MRX-MRX (n = 47))?
A: Its value is “(10.6) %”.

Q: And the “TEAE leading to death, %” value ([5]; MRX-MRX (n = 47))?
A: The value was “(2.1) %”.

Q: What about the “TEAE leading to discontinuation, %” value ([5]; MRX-MRX (n = 47)) of the same compound?
A: Its value is “(6.4) %”.

Q: What about the “Any TEAE, %” value ([5]; PBO-MRX (n = 38)) of the same compound?
A: The value was “(92.1) %”.

Q: What about the “Most common TEAE: diarrhoea, %” value ([5]; PBO-MRX (n = 38)) of the same compound?
A: The value was “(34.2) %”.

Q: And the “Serious TEAE, %” value ([5]; PBO-MRX (n = 38))?
A: Its value is “(15.0) %”.

Q: What about the “Severe TEAE, %” value ([5]; PBO-MRX (n = 38)) of the same compound?
A: The value was “(5.3) %”.

Q: What about the “early onset of diarrhea (most frequent TEAE)” value ([5]; overall) of the same compound?
A: Its value is 51%.

Q: And the new safety signals ([5]; overall)?
A: Its new safety signals is “no new safety signals”.

Q: And the “change of participant height Z-score over time” value ([6]; FIG. 24A-C)?
A: The value was “overall positive trend for increase”.

Q: What about the “change of participant weight Z-score over time” value ([6]; FIG. 25A-C) of the same compound?
A: Its value is “gained significantly more weight over time than placebo participants”.

Q: What about the “sBA change in individual t-BSEP patients” value ([7]; Baseline to Week 26, FIG. 42D) of the same compound?
A: The value was “reductions from Baseline to Week 26 in sBA”.

Q: What about the “sBA reduction in individual t-BSEP patients” value ([7]; all patients receiving maralixibat (MRX-MRX) or switching from placebo (PBO-MRX), Table 15) of the same compound?
A: Its value is “meaningful sBA reduction”.

Reference: patent US20240173317A1, “METHODS FOR TREATING PROGRESSIVE FAMILIAL INTRAHEPATIC CHOLESTASIS” (MIRUM PHARMACEUTICALS, INC., priority 2022, published 2024)
